Patent publication US20040265300A1, “Chimeric molecules containing a module able to target specific cells and a module regulating the apoptogenic function of the permeability transition pore complex (PTPC)” (priority 2001, published 2004)
Ends that are not written are not given here. Peptide text beside a SMILES is read from it. * marks the point of attachment. Biotin = O=C1N[C@H]2[C@H](CS[C@H]2CCCCC(=O)*)N1

Tests used:
[1] = system: permeability transition pore (PTP); assay: Swelling of isolated mitochondria (large amplitude swelling, 90° light scattering); format: biochemical, rat; set-up: key to Induction of Mitochondrial swelling (sw): +++ rapid sw; ++ low sw; + very low sw; − no sw; settings: for Induction of Mitochondrial swelling (sw): 5 μM, t 20 min
Procedure: Mitochondria are purified from rat liver, as described (Costantini et al., 1996), and resuspended in 250 mM sucrose +0.1 mM EGTA +10 mM -tris[hydroxymethyl]methyl-2-Aminoethanesulfonic acid, pH=7.4). For the induction of PT, mitochondria (0.5 mg protein per ml) are resuspended in PT buffer (200 mM sucrose, 10 mM Tris-MOPS (pH 7.4), 5 MM Tris-succinate, 1 mM Tris-phosphate, 2 μM rotenone, and 10 μM EGTA-Tris), and monitored in an F4500 fluorescence spectrometer (Hitachi, Tokyo, Japan) for the 90° light scattering of light (545 nm) to determine large amplitude swelling after addition of 2 mM atractyloside (Atr), 1 μM cyclosporin A (CsA; Novartis, Basel, Switzerland), 5 μM CaCl2, and/or 0.5 to 20 μM of pTarg-pTox or pTarg-pSave. For the determination of the ΔΨm, mitochondria (0.5 mg protein per ml) are incubated in a buffer supplemented with 1μM rhodamine 123 (Molecular Probes, Eugene, OR) and the dequenching of rhodamine fluorescence (excitation 505 nm, emission 525 nm) is measured as described (Shimizu et al., 1998). Supernatants from mitochondria (6800 g for 15 min; then 20 000 g for 1 h; 4° C.) are frozen at −80° C. until determination of apoptogenic activity on isolated nuclei, DEVD-afc cleaving activity, and immunodetection of cytochrome c and AIF. Cytochrome c and AIF are detected by means of a monoclonal antibody (clone 7H8.2C12, Pharmingen) and a polyclonal rabbit anti-serum (Susin et al. 1999) respectively.

purified ANT = molecular target: T1, purified ANT (Rattus norvegicus, UniProt Q05962); format: binding; settings: for binding to purified ANT: surface plasmon resonance; for Kd: one ANT concentration only, 50 nM, read-out: relative affinities of ANT for the peptide
T1 sequence (Q05962 1-298): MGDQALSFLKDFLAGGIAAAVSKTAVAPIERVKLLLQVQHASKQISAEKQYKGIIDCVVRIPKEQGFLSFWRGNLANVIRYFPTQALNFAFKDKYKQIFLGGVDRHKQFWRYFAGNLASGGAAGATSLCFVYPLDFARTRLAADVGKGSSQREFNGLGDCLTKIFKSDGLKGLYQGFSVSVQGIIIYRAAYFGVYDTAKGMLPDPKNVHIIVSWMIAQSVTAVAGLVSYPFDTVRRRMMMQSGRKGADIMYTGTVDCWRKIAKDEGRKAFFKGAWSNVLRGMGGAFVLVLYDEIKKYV
Procedure: (§1) Sensor Chips SA (streptavidin coated sensor chips) were used for immobilisation of the different peptides. Tox1 was immobilised at a density of 0.7 ng/mm^2, Tox0 at a density of 3.7 ng/mm^2,. Ctrl Tox0 at a density of 1.4 ng/mm^2, Tox5 at a density of 1 ng/mm^2, Tox6 at a density of 1 ng/mm^2, Save 1 at a density of 1.3 ng/mm^2, and the control peptide at a density of 0.8 ng/mm^2. Association and dissociation kinetics of ANT and VDAC interactions were followed at a rate of 10 μL/min for 10 minutes (5 minutes association and 5 minutes dissociation). The ligand was regenerated with a 1 minute flux of KSCN 3M. The obtained sensorgrams were analysed by the B1Aeval 3.1 software using the method of double references (Myszka D.G. 2000. Kinetic, equilibrium and thermodynamic analysis of macromolecular interactions with BIACORE. Methods Enzymol. 323:325-340). From the sensorgrams with the ligands were first substracted the sensorgrams obtained with the corresponding analyte solvents. A second substraction was performed with the sensorgrams obtained with the control peptide ligand. The control peptide for the Tox and Save peptides was biot-H19C corresponding to the sequence of the β2-adrenergic receptor (Lebesgue D., Wallukat G., Mijares A., Granier C., Argibay J., and Hoebeke J. (1998) An agonist-like monoclonal antibody to the human β 2-adrenergic receptor. Eur.J. Pharmacol. 348:123-133). The control peptide for Tox0 was Ctr1 Tox0.

purified VDAC = purified VDAC (Homo sapiens, UniProt P21796); assay: Surface plasmon resonance, immobilised peptides with purified VDAC; format: binding; settings: for specific binding of VDAC: 50 nM VDAC
Sequence of purified VDAC (P21796 whole entry, species assumed): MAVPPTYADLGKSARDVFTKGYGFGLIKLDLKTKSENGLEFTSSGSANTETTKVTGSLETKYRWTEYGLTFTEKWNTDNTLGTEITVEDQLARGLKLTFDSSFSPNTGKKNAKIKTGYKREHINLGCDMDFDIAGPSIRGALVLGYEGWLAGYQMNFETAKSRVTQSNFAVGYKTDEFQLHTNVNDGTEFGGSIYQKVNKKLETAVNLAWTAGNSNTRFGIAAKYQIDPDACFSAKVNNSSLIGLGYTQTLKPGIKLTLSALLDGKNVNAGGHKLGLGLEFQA
Procedure: as §1

Compound	binding to purified ANT (purified ANT)	specific binding of VDAC (purified VDAC)	Induction of Mitochondrial swelling (sw) [1]	further results
C=C1[C@@H]2CC[C@H]3[C@]4(C)C[C@H](O[C@@H]5O[C@H](CO)[C@@H](OS(=O)(=O)O)[C@H](OS(=O)(=O)O)[C@H]5OC(=O)CC(C)C)C[C@@H](C(=O)O)[C@H]4CC[C@]3(C2)[C@H]1O [Atractyloside, atractyloside, reference compound]				Mitrochondrial swelling (sw) % ([1]; 600 μM): 110%
[Ca+2] [Ca 2+, reference compound]				Mitrochondrial swelling (sw) % ([1]; 100 μM): 100%
C[C@H](NC(=O)[C@H](Cc1ccccc1)NC(=O)[C@H](Cc1ccc(O)cc1)NC(=O)[C@H](CCCNC(=N)N)NC(=O)[C@H](Cc1c[nH]c2ccccc12)NC(=O)[C@H](Cc1ccccc1)NC(=O)[C@H](CCC(N)=O)NC(=O)[C@@H](NC(=O)[C@H](CCCNC(=N)N)NC(=O)[C@H](CCCCN)NC(=O)[C@H](CC(=O)O)NC(=O)[C@H](CCCNC(=N)N)NC(=O)[C@H](CCCNC(=N)N)NC(=O)[C@H](CCCNC(=N)N)NC(=O)[C@H](CCC(N)=O)NC(=O)[C@H](CCCNC(=N)N)NC(=O)[C@H](CCCNC(=N)N)NC(=O)[C@H](CCCCN)NC(=O)[C@H](CCCCN)NC(=O)[C@H](CCCNC(=N)N)NC(=O)CCCC[C@@H]1SC[C@@H]2NC(=O)N[C@@H]21)[C@@H](C)O)C(=O)NCC(=O)N[C@@H](CC(N)=O)C(=O)O [Save1, Biot-RKKRRQRRR-DKRTQFWRYFAGN (hANT2)] (Biotin-RKKRRQRRRDKRTQFWRYFAGN-OH; C-terminus assumed)	Binds Purified ANT	did not result in any specific binding		
C[C@@H](O)[C@H](NC(=O)[C@H](CCCNC(=N)N)NC(=O)[C@H](CCCCN)NC(=O)[C@H](CC(=O)O)NC(=O)CNC(=O)CNC(=O)[C@H](CS)NC(=O)[C@H](CCCNC(=N)N)NC(=O)CNC(=O)[C@H](CC(N)=O)NC(=O)[C@H](CS)NC(=O)CCCC[C@@H]1SC[C@@H]2NC(=O)N[C@@H]21)C(=O)N[C@@H](CCC(N)=O)C(=O)N[C@@H](Cc1ccccc1)C(=O)N[C@@H](Cc1c[nH]c2ccccc12)C(=O)N[C@@H](CCCNC(=N)N)C(=O)N[C@@H](Cc1ccc(O)cc1)C(=O)N[C@@H](Cc1ccccc1)C(=O)N1CCC[C@H]1C(=O)NCC(=O)N[C@@H](CC(N)=O)C(=O)O [Tox5, Biot-CNGRC-GG-DKRTQFWRYFPGN (hANT2m)] (Biotin-CNGRCGGDKRTQFWRYFPGN-OH; N-terminus and C-terminus assumed)	Binds Purified ANT	did not result in any specific binding	++	Kd (purified ANT): 0.1 nM
C[C@H](NC(=O)CCCC[C@@H]1SC[C@@H]2NC(=O)N[C@@H]21)C(=O)N[C@@H](CS)C(=O)N[C@@H](CC(=O)O)C(=O)N[C@@H](CS)C(=O)N[C@@H](CCCNC(=N)N)C(=O)NCC(=O)N[C@@H](CC(=O)O)C(=O)N[C@@H](CS)C(=O)N[C@@H](Cc1ccccc1)C(=O)N[C@@H](CS)C(=O)NCC(=O)NCC(=O)N[C@@H](CC(=O)O)C(=O)N[C@@H](CCCCN)C(=O)N[C@@H](CCCNC(=N)N)C(=O)N[C@H](C(=O)N[C@@H](CCC(N)=O)C(=O)N[C@@H](Cc1ccccc1)C(=O)N[C@@H](Cc1c[nH]c2ccccc12)C(=O)N[C@@H](CCCNC(=N)N)C(=O)N[C@@H](Cc1ccc(O)cc1)C(=O)N[C@@H](Cc1ccccc1)C(=O)N1CCC[C@H]1C(=O)NCC(=O)N[C@@H](CC(N)=O)C(=O)O)[C@@H](C)O [Tox6, Biot-ACDCRGDCFC-GG-DKRTQFWRYFPGN (hANT2m)] (Biotin-ACDCRGDCFCGGDKRTQFWRYFPGN-OH; N-terminus and C-terminus assumed)	Binds Purified ANT	did not result in any specific binding	++	Kd (purified ANT): 0.7 nM
Biot-CNGRC-GG-CNGRC [Ctr2Tox1]			−	
Biot-CNGRC-GG-HFAIGCRHSAIG (Biotin-CNGRCGGHFAIGCRHSAIG; cysteine pairing not given here) [Ctr1Tox1]			−	
Biot-CNGRC-GG-HFRIGCRHSRIG [Tox1]	Binds Purified ANT		++	association of VDAC with the peptide ligand (purified VDAC; VDAC concentrations ten times higher than ANT): extremely low association
Biot-GG-HFRIGCRHSRIG [Ctr3Tox1]			+	
